Where two headings read alike, the source gives them in different places.
Legend:
[1] = tested on: Raphanus sativus L. cv. Cherry Belle cotyledons; test: Radish cotyledon bioassay (expansion growth and chlorophyll accumulation); format: in vivo; set-up: Chlorophyll a + b: unit not given here; conditions: for Change in fresh weight: continuous illumination, 25° C., ten cotyledons; for activity at 20 µg/mL: Raphanus sativus, read-out: Change in fresh weight, % of control; for ethylene-like activities (summary of the examples) / cytokinin-like activities (summary of the examples): summary statement in the description
Text: Radish cotyledon bioassay: This bioassay using Raphanus sativus L. cv. Cherry Belle cotyledons was developed by Letham, DS (Physiologia Plantarum 25, 391–396, 1971, incorporated by reference in its entirety) to evaluate the efficacy of cytokinin on cell enlargement. Success using this assay is not restricted to radish. […] In addition to their effect on cell division, cytokinin plays a major role in driving cell enlargement. Compounds in this class of phytohormone and with cytokinin activity also help maintain photosynthetic activity and productivity and abolish proteolytic activity. In cotyledon leaf systems, a requirement for cytokinin is critical and removal of the roots (i.e. the presumed source of cytokinin) renders the cotyledon leaves unable to expand. Exposure to cytokinin (0.02–22 μg/ml) results in a dramatic increase in fresh weight of cotyledons within 72 hours. This effect is not observed with either gibberellin or auxin and is usually delayed or inhibited by abscisic acid and the ethylene precursor, 1-aminocyclopropane-1-carboxylic acid (ACC). […] Thus, the mode of action of cytokinin in this system appears to be similar to that of indole-3-acetic acid (IAA) in auxin-induced stem elongation, a process that depends on an increase in the mechanical extensibility of the cell wall. However, cytokinin antagonizes IAA-mediated cell elongation and appears to do so by promoting ethylene production. Furthermore, cytokinin-induced cell expansion is not usually accompanied by proton (H^+) extrusion and no change in plasma membrane ATPase activity is evident.
Seeds of Raphanus sativus L. cv. Cherry-Belle were germinated in darkness at 24° C. for 36 h in Petri dishes containing filter paper wetted with distilled water. The smaller of the two cotyledons was excised, the fresh weight determined, and 10 cotyledons placed adaxial side down on filter paper in Petri dishes containing 10 ml of KPO4 buffer (2 mM, pH 6.0) and the compounds to be tested at 20 mg/l. […] Chlorophyll content was determined after extraction of tissue into 80% ethanol (containing butylated hydroxytoluene (BHT) 10 mg/l) using the equations Chl a=(13.95A663)−(6.88A647) and Chl b=(24.96A652)−(7.32A663) as described by Lichtenthaler, HK, Methods in Enzymology 148: 350–382, 1987, incorporated by reference in its entirety. FIG. 6 illustrates the difference in cotyledon size in response to the cytokinin kinetin.

maize roots = test: Corn root bioassay (ethylene production by maize roots); format: in vivo, Zea mays L.; conditions: for activity at 20 µg/mL: Zea mays, read-out: Ethylene, % of control; for activity at 20 µg/mL / Ethylene / Ethylene, % of control: 20 mg/l; for increase of ethylene production (in words): other experiments using a different treatment time
Protocol: Corn root bioassay: It is well established that roots of Zea mays produce ethylene when exposed to a variety of stresses (for review, see Morgan, PW and Drew, MC, Physiologia Plantarum 100: 620–630, 1997). Mechanical impedance and hypoxia both induce ethylene formation and usually as early as 1 hour after exposure. In response to ethylene treatment, maize roots show decreased expansion and elongation, a high incidence of cell death and the formation of aerenchyma tissue—particularly evident when roots are exposed to hypoxic conditions (Drew, MC et al., Trends in Plant Science 5: 123–127, 2000, Morgan and Drew 1997).
Seeds of Zea mays L. were sown in flats of Perlite, covered with a layer of vermiculite, and irrigated daily with water and/or 1/10 Hoagland solution. Seedlings were cultivated under continuous illumination at 22–25° C. and used when 7 d old. Seedlings were removed from the Perlite and washed under running tap water. Seedlings were allowed to acclimate in water and/or 1/10 Hoagland solution for several hours before being transferred to Falcon tubes containing the test compounds (all 20 mg/l) prepared in 1/10 Hoagland solution. […] Roots were then transferred to gas-tight tubes each containing 200 μl of water. The tubes were sealed and incubated at 26° C. for 1–2 h in darkness before gas samples were drawn from the incubation tubes using a 1 ml syringe and assayed by gas chromatography (Romera, FJ et al. (1999) Annals of Botany 83, 51–55).

[2] = Table 2, 72 h incubation, 20 mg/l
[3] = experiment 1, 72 h illumination, roots incubated 2 h in gas tight tubes
[4] = experiment 2, 36 h illumination, roots incubated 2 h in darkness at 24° C.
[5] = Table 3, 48 h incubation, 20 mg/l

SMILES | Chlorophyll a/b ([1]; Experiment 1, 20 mg/l, 72 h) | Change in fresh weight ([1]; Experiment 1, 20 mg/l, 72 h) | Chlorophyll (mg/g FW) a + b ([1]; Experiment 2, 20 mg/l, 48 h) | Chlorophyll (μg/cotyledon) a + b ([1]; Experiment 2, 20 mg/l, 48 h) | Chlorophyll a/b ([1]; Experiment 2, 20 mg/l, 48 h) | Change in fresh weight ([1]; Experiment 2, 20 mg/l, 48 h) | activity at 20 µg/mL ([1]; Experiment 1, 20 mg/l, 72 h) | activity at 20 µg/mL ([1]; Experiment 2, 20 mg/l, 48 h) | ethylene-like activities (summary of the examples) [1] | Ethylene (maize roots; [4]) | hormone-like activity with respect to expansion growth (in words) [1, 5] | cytokinin-like activities (summary of the examples) [1] | further results
NC1(C(=O)O)CC1 [ACC, 1-aminocyclopropane-1-carboxylic acid, reference compound] | 3.7 | 5.54 ± 2.87 mg | 1.42 mg/g FW | 12.27 μg/cotyledon | 1.8 | 4.25 ± 0.63 mg | 40% | 52% | – | – | – | – | –
c1coc(CNc2ncnc3[nH]cnc23)c1 [Kinetin, kinetin, reference compound] | 1.2 | 23.74 ± 7.92 mg | 0.81 mg/g FW | 25.78 μg/cotyledon | 1.8 | 27.26 ± 2.88 mg | 169% | 336% | – | – | – | – | –
O=CNCCO [NAE-1, N-Formyl-2-aminoethanol] | 1.7 | 7.61 ± 3.42 mg | 1.62 mg/g FW | 21.19 μg/cotyledon | 2.0 | 8.68 ± 1.70 mg | 54% | 107% | ethylene-like activities | 45.32 ± 18.98 pmol/g FW/h | – | – | Chlorophyll a + b ([1]; Experiment 1, 20 mg/l, 72 h): 0.59; cotyledon expansion (in words) [1, 2]: significantly slowed cotyledon expansion; activity at 20 µg/mL (maize roots; experiment 1, 72 h): 175%; activity at 20 µg/mL (maize roots; experiment 2, 36 h): 157%; Ethylene (maize roots; [3]): 1034.4 ± 255.3 nL/g FW/h; increase of ethylene production (in words) (maize roots): effective
CC(=O)NCCO [NAE-2, N-Acetyl-2-aminoethanol] | 1.3 | 12.52 ± 2.83 mg | 1.94 mg/g FW | 19.88 μg/cotyledon | 2.0 | 5.86 ± 1.36 mg | 89% | 72% | ethylene-like activities | 45.96 ± 12.53 pmol/g FW/h | ethylene-like activity | – | chlorophyll accumulation (in words) [1, 2]: greater effect than other NAEs; cotyledon expansion (in words) [1, 5]: slowed cotyledon expansion; activity at 20 µg/mL (maize roots; experiment 1, 72 h): 146%; activity at 20 µg/mL (maize roots; experiment 2, 36 h): 160%
CCCC(=O)NCCO [NAE-4:0, N-Butyroyl-2-aminoethanol] | – | – | 2.00 mg/g FW | 23.49 μg/cotyledon | 1.9 | 7.15 ± 1.16 mg | – | 88% | ethylene-like activities | – | ethylene-like activity | cytokinin-like activities | increase of ethylene production (in words) (maize roots): effective
CCCCCC(=O)NCCO [NAE-6:0, N-Hexanoly-2-aminoethanol] | 1.6 | 8.04 ± 3.86 mg | 1.73 mg/g FW | 19.80 μg/cotyledon | 2.0 | 7.02 ± 0.98 mg | – | – | ethylene-like activities | 40.58 ± 11.85 pmol/g FW/h | ethylene-like activity | – | Change in fresh weight, % of control ([1]; Experiment 1, 20 mg/l, 72 h): 57%; Chlorophyll a + b ([1]; Experiment 1, 20 mg/l, 72 h): 0.65; Change in fresh weight, % of control ([1]; Experiment 2, 20 mg/l, 48 h): 87%; cotyledon expansion (in words) [1, 2]: significantly slowed cotyledon expansion; Ethylene, % of control (maize roots; Experiment 1, 72 h): 210%; Ethylene (maize roots; [3]): 1244.0 ± 406.2 nL/g FW/h; Ethylene, % of control (maize roots; experiment 2, 36 h): 141%; relative efficacy on ethylene formation (in words) (maize roots; first experiment (Table 4)): strongest effect
CCCCCCCC(=O)NCCO [NAE-8:0, N-Octanoyl-2-aminoethanol] | 1.5 | 13.32 ± 6.40 mg | 1.75 mg/g FW | 22.27 μg/cotyledon | 1.8 | 8.29 ± 0.72 mg | 95% | 102% | ethylene-like activities | 55.46 ± 31.59 pmol/g FW/h | – | – | chlorophyll accumulation (in words) [1, 2]: greater effect than other NAEs; activity at 20 µg/mL (maize roots; experiment 1, 72 h): 116%; activity at 20 µg/mL (maize roots; experiment 2, 36 h): 193%; Ethylene (maize roots; [3]): 685.2 ± 211.6 nL/g FW/h; relative efficacy on ethylene formation (in words) (maize roots; second experiment (Table 5)): strongest effect
CCCCCCCCCCCC(=O)NCCO [NAE-12:0, N-Dodecanoyl-2-aminoethanol] | – | – | 1.79 mg/g FW | 23.16 μg/cotyledon | 2.0 | 8.53 ± 1.59 mg | – | – | – | – | – | cytokinin-like activities | activity at 20 µg/mL ([1]; 48 h): 105%
CCCCCCCCCCCCCCCC(=O)NCCO [NAE-16:0, N-Hexadecanoyl-2-aminoethanol] | – | – | 1.44 mg/g FW | 24.18 μg/cotyledon | 1.7 | 12.42 ± 2.26 mg | – | 153% | – | – | cytokinin-like activity | cytokinin-like activities | chlorophyll content per unit mass (in words) [1, 5]: decreased chlorophyll content per unit mass; chlorophyll per cotyledon (in words) [1, 5]: increased chlorophyll per cotyledon
CCCCCCCCCCCCCCCCCC(=O)NCCO [NAE-18:0, N-Octadecanoyl-2-aminoethanol] | – | – | 1.85 mg/g FW | 22.42 μg/cotyledon | 1.9 | 7.75 ± 1.01 mg | – | 96% | – | – | – | – | –
CCCCCCCC/C=C\CCCCCCCC(=O)NCCO [NAE-18:1(Δ9), N-Oleoyl-2-aminoethanol] | – | – | 1.99 mg/g FW | 20.29 μg/cotyledon | 2.0 | 5.78 ± 0.96 mg | – | 71% | ethylene-like activities | – | ethylene-like activity | cytokinin-like activities | cotyledon expansion (in words) [1, 5]: slowed cotyledon expansion; increase of ethylene production (in words) (maize roots): effective
O=C(NCCO)c1ccccc1 [NAE-Bz, N-Benzoyl-2-aminoethanol] | – | – | 1.77 mg/g FW | 20.87 μg/cotyledon | 1.8 | 7.36 ± 1.00 mg | – | 91% | – | – | – | – | –
CCCCC(CC)C(=O)NCCO (centres unmarked) [NAE-EH, N-(2-Ethylhexanoyl)-2-aminoethanol] | – | – | 1.63 mg/g FW | 19.73 μg/cotyledon | 1.8 | 7.69 ± 1.16 mg | – | 95% | – | – | – | – | –
